Legend:
HIV-1 Hx10 clone = assay: Fusion assay: inhibition of syncytium formation; type: cell-based; conditions: concentration 10^−6 M, C8166 cells
Method: C8166 cells were incubated at 37° C. with HIV-1 Hx10 clone (B. Hahn, University of Alabama, USA) in the presence of test substances (SPC3, SPC RL, empty liposomes of 110 nm and 250 nm average size, and dialysed and non-dialysed liposomes of those sizes containing SPC3) and in the absence of any test substance (control). The samples were inspected by phase contrast microscopy and syncytia were scored after 48 and 72 hours of incubation in 96-well flat-bottomed cultured plates. Experiments were performed three times in duplicate and identical results were obtained. The presence of syncytia is indicated by + signs. allocated as follows: […]

HIV-1 Hx10clone = assay: Infection assay: inhibition of cell infection (cell-free p24 by ELISA); type: cell-based; conditions: C8166 cells, supernatant ELISA, no unit or concentration given
Method: C8166 cells were washed once in RPMI medium and then infected with HIV-1 Hx10clone by incubation at 37° C. for 2 hours in the presence of test substances (SPC3, SPC RL, empty liposomes of 110 nm and 250 nm average size, and dialysed and non-dialysed liposomes of those sizes containing SPC3) and in the absence of any test substance (control). After incubation, the virus was removed and the cells were incubated with fresh medium at 37° C. in the presence of the test substances or in the absence of any test substance (control). Infections and cell cultures were in 96-well culture plates. The production of HIV was monitored by measuring the concentration of cell-free p24 in the supernatant by ELISA, as described by Gluschankof et al., 1997, using the AMPAK amplification kit (DAKO. Trappes, France). The results are shown in Table 2 below, and the day 4 results are also shown graphically in the accompanying drawing.

[1] = Toxicity, intravenous injection into mice; type: in vivo; conditions: 50 mg/kg of SPC3, immediately, after 12 or 24 hours
Method: To determine toxicity, the 250 nm dialysed liposomes containing SPC3 were injected intravenously into 8 mice at a dose of 50 mg/kg of SPC3.

Compound | Syncitia Formation (HIV-1 Hx10 clone; Day 2 post-infection) | Syncitia Formation (HIV-1 Hx10 clone; Day 3 post-infection) | p24 production (HIV-1 Hx10clone; Day 3 post-infection) | p24 production (HIV-1 Hx10clone; Day 4 post-infection) | symptoms of toxicity [1]
(RQGYSPL)8-(K)4-(K)2-K-βA-OH [SPC RL] | +/− (+/−=>95 % decrease) | +/− (+/−=>95 % decrease) | 0.441 | 0.463 | –
C[C@H](NC(=O)[C@H](CCCNC(=N)N)NC(=O)CNC(=O)[C@@H]1CCCN1C(=O)CN)C(=O)N[C@@H](Cc1ccccc1)C(=O)NCCCC[C@H](NC(=O)[C@H](Cc1ccccc1)NC(=O)[C@H](C)NC(=O)[C@H](CCCNC(=N)N)NC(=O)CNC(=O)[C@@H]1CCCN1C(=O)CN)C(=O)NCCCC[C@H](NC(=O)[C@H](CCCCNC(=O)[C@H](Cc1ccccc1)NC(=O)[C@H](C)NC(=O)[C@H](CCCNC(=N)N)NC(=O)CNC(=O)[C@@H]1CCCN1C(=O)CN)NC(=O)[C@H](Cc1ccccc1)NC(=O)[C@H](C)NC(=O)[C@H](CCCNC(=N)N)NC(=O)CNC(=O)[C@@H]1CCCN1C(=O)CN)C(=O)NCCCC[C@H](NC(=O)[C@H](CCCCNC(=O)[C@H](CCCCNC(=O)[C@H](Cc1ccccc1)NC(=O)[C@H](C)NC(=O)[C@H](CCCNC(=N)N)NC(=O)CNC(=O)[C@@H]1CCCN1C(=O)CN)NC(=O)[C@H](Cc1ccccc1)NC(=O)[C@H](C)NC(=O)[C@H](CCCNC(=N)N)NC(=O)CNC(=O)[C@@H]1CCCN1C(=O)CN)NC(=O)[C@H](CCCCNC(=O)[C@H](Cc1ccccc1)NC(=O)[C@H](C)NC(=O)[C@H](CCCNC(=N)N)NC(=O)CNC(=O)[C@@H]1CCCN1C(=O)CN)NC(=O)[C@H](Cc1ccccc1)NC(=O)[C@H](C)NC(=O)[C@H](CCCNC(=N)N)NC(=O)CNC(=O)[C@@H]1CCCN1C(=O)CN)C(=O)NCCC(=O)O [SPC3, (GPGRAF)8-(K)4-(K)2-K-βA-OH] | – | – | – | – | symptoms of toxicity were observed
